Assay results: article PMC8312956, “T. cruzi DNA polymerase beta (Tcpolβ) is phosphorylated in vitro by CK1, CK2 and TcAUK1 leading to the potentiation of its DNA synthesis activity” (PLoS Neglected Tropical Diseases, 2021)

How the values were obtained:
TcAUK1 = target: T1, TcAUK1 (Trypanosoma cruzi, UniProt Q4DKE3); test: […]-ATP phosphorylation of Tcpolβ, SDS-PAGE autoradiography; over […] decrease at […]; format: biochemical
T1 construct: gene Tc00.1047053508817.80; recombinant, expressed in E. coli (pET15b), renatured and purified
T1 sequence (Q4DKE3 entry or part of it): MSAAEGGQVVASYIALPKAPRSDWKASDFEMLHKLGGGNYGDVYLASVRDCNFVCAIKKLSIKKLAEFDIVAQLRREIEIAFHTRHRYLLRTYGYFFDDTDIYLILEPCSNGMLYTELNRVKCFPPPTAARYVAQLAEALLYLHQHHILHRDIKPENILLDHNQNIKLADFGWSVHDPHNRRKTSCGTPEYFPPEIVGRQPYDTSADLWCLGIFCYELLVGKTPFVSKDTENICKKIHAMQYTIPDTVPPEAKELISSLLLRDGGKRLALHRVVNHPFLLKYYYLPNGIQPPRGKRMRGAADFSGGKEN

TcCK2α = target: T2, TcCK2α (Trypanosoma cruzi, UniProt Q4E340); test: […]-ATP phosphorylation of pCK2β, SDS-PAGE autoradiography; format: biochemical
T2 construct: gene Tc00.1047053508741.320; recombinant TcCK2α in hybrid CK2 holoenzyme; with S. pombe CK2β (pCK2β)
T2 sequence (P40232 whole entry): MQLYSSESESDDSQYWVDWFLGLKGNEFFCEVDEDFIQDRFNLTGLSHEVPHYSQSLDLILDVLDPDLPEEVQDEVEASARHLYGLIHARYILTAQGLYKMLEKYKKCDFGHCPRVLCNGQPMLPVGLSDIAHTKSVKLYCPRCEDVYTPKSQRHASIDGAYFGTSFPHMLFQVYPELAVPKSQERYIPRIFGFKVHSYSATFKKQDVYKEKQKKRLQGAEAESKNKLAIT
T2 sequence (Q4E340 entry or part of it): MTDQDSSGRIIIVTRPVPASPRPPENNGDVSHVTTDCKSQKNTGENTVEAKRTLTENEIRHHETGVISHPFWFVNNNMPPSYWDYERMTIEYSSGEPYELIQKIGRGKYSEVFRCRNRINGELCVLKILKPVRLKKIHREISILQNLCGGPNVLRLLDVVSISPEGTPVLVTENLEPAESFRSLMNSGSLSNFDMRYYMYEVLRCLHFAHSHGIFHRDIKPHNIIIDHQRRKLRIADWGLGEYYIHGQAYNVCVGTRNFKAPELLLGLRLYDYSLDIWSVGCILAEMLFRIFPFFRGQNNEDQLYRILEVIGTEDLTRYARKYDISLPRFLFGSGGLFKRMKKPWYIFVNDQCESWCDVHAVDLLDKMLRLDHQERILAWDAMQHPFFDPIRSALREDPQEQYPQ

Row | Compound | 32P-ATP phosphorylation of Tcpolβ, SDS-PAGE autoradiography; over 60% decrease a (TcAUK1) | IC50 (TcCK2α) [nM]
1 | O=C(Nc1cccc(Cl)c1)Nc1ncc(CCNc2ncnc3ccsc23)s1 [SNS314] | ~ 48 nM | 
2 | Brc1c(Br)c(Br)c2[nH]nnc2c1Br [TBB, 4,5,6,7-tetrabromobenzotriazole] |  | 500 to 1000
